We go through one compound from US5985824A, “Methods and compositions for treating cystic fibrosis” (priority 1997, dated 1999).

Entries after “also recorded” stand apart in the source; their conditions may differ. Where two headings read alike, the source gives them in different places.

In assay [1] the test system is ΔF508-CFTR (C127-ΔF508-low cells). Nature of the assay: SPQ halide efflux assay, cAMP-stimulated Cl- channel activity, C127-ΔF508-low cells. Type of assay: cell-based. The protocol:
(§1) The cAMP-dependent CFTR Cl^- channel activity was assessed using the halide-sensitive fluorophore 6-methoxy-N-(3-sulfopropyl)-quinolinium (SPQ) essentially as described previously (Cheng et al., (1995), supra.; Marshall et al., supra.). Briefly, the cells were treated with different amounts of DSG for the times specified. At the end of the treatment period, the cells were loaded with SPQ by hypotonic shock for 4 min at room temperature. SPQ fluorescence initially was quenched by incubating the cells for up to 30 min in a NaI buffer (135 mM NaI, 2.4 mM K2 HPO4, 0.6 mM KH2 PO4, 1 mM MgSO4, 1 mM CaSO4, 10 mM dextrose, and 10 mM N-2 hydroxyethylpiperazine-N'2-ethanesulfonic acid, pH 7.4). After measuring the baseline fluorescence (Fo) for 2 min., the NaI solution was replaced with one containing 135 mM NaNO3, and fluorescence was measured for another 16 min. Forskolin (20 μM) and 3-isobutyl-1-methyl-xanthine (IBMX) (100 μM) were added 5 min after the anion substitution to increase intracellular levels of cAMP.
An increase in halide permeability is reflected by a more rapid increase in SPQ fluorescence. It is the rate of change rather than the absolute change in signal that is the important variable in evaluating anion permeability. Differences in absolute levels reflect quantitative differences between groups in SPQ loading, size of cells, or number of cells studied. The data are presented as means± SE of fluorescence at time t (Ft) minus the baseline fluorescence (Fo, the average fluorescence measured in the presence of I^- for 2 min. before ion substitution) and are representative of results obtained under each condition.
For each experiment, between 50 to 100 cells were examined on a given day and studies under each condition were repeated on at least two days. For each experiment, the responses were compared with those obtained with control or untreated cells. […] Under the conditions specified above, control cells were unresponsive to added cAMP agonists. There was a broad spectrum in the rate of change in SPQ fluorescence observed with responsive cells. Normally, cells were scored as responsive if they generated a minimum of a […] change in the rate of increase in SPQ fluorescence following stimulation with cAMP agonists. Because the response was heterogenous, the data shown are for the 10% of cells in each experiment showing the greatest response.
A bovine-papilloma virus based eukaryotic expression vector (pBPV-CFTR-ΔF508) containing the gene for ΔF508 CFTR and neomycin resistance were transfected into C127 cells. The C127 cells are murine mammary cells which were obtained from ATCC (#CRL 1616). The expression of the mutant ΔF508 protein and neomycin was driven using a metallothionein promoter. Following transfection, clonal cells resistant to G418 were isolated and cells expressing the mutant ΔF508 protein were subsequently identified using antibodies specific for CFTR (mAb-13-1). The cells expressing the mutant ΔF508 CFTR protein were maintained in Dulbecco's modified eagle media (DMEM) supplemented with glutamine and fetal calf serum.
C127-ΔF508-low (mouse mammary tumor) is a recombinant cell line stably transfected with the cDNA encoding the mutant ΔF508-CFTR (Cheng et al. (1995), supra.; Marshall et al. (1994), J. Biol. Chem. 269: 2987-2995). […] C127-mock is a cell line that has been stably transfected with the backbone of the expression vector used to generate C127-ΔF508-low (Cheng et al. (1995), supra.). LLCPK1 -ΔF508 (pig kidney epithelial) is a recombinant cell line stably expressing low levels of the mutant ΔF508-CFTR protein (Marshall et al., supra.). The details of the generation, characterization and routine propagation of these cell lines has been described (Cheng et al. (1995), supra.; Marshall et al., supra.).
Cells were treated with up to 100 μg/ml of DSG for up to 72 h. Concentrations of DSG >50 μg/ml were toxic to most of the cell types tested. […]

Another assay relates to immune responses. The following applies: T-cell dependent assays and models; cited from earlier work.
The next assay deals with hsc70 (hsp70). The following applies: cited from earlier work.
Another assay concerns ΔF508-CFTR (CFT1 cells). Nature of the assay: SPQ assay, cAMP-stimulated Cl- channel activity, CFT1 cells. Type of assay: cell-based, human. How it is done:
as §1, with “Forskolin (20 μM) and 3-isobutyl-1-methyl-xanthine (IBMX) (100 μM) were added 5 min after the anion substitution to increase intracellular levels of cAMP.” left out
An increase in halide permeability is reflected by a more rapid increase in SPQ fluorescence. […] Differences in absolute levels reflect quantitative differences between groups in SPQ loading, size of cells, or number of cells studied. The data are presented as means± SE of fluorescence at time t (Ft) minus the baseline fluorescence (Fo, the average fluorescence measured in the presence of I^- for 2 min. before ion substitution) and are representative of results obtained under each condition. […]

As for `N=C(N)NCCCCCCC(=O)NC(O)C(=O)NCCCCNCCCN` (centres unmarked) [DSG, deoxyspergualin], the “response in mock transfected cells” value in assay [1] (C127-mock cells, DSG treated) is on record as “No response was observed”. The “cells generating a measurable response” value in assay [1] (C127-ΔF508-low cells, SPQ, average of 5 experiments) is “Approximately 17%”. Also, the “cAMP-stimulated change in SPQ fluorescence / Cl- channel activity, in words” value in assay [1] (C127-ΔF508-low cells, DSG 10-100 μg/ml, sodium butyrate 5 mM 24 h, spermidine 5 μg/ml 72 h) is listed as “marginal; also recorded: resulted in the appearance of functional cAMP-stimulated CFTR Cl^- channel activity at the cell surface; also recorded: gave a rapid change in fluorescence following stimulation with forskolin; also recorded: More optimal responses were observed in cells that were treated with lower concentrations of DSG compared to higher concentrations of DSG; also recorded: restored cAMP-stimulated anion efflux albeit to a lesser extent than was observed with sodium butyrate treatment; also recorded: less than that obtained with sodium butyrate”. For the same compound, the “immunosuppressive activity, in words” value with immune responses is listed as “potent immunosuppressive activity”. For the same compound, the Kd on hsc70 (hsp70) (hsc70, Nadeau et al. (1994), read-out: Kd value for DSG binding to hsc70) was 4 µM; at hsc70 (hsp70) (hsp70, read-out: kds, DSG-hsp complexes) it was 4 to 5 µM. For the same compound, the “affinity for hsps, in words” value in the assay on hsc70 (hsp70) (hsps, Nadler et al. (1992), Nadeau et al. (1994)) was “Pure human hsp90 and hsp70 have equivalent affinities for DSG”. In addition, the “cAMP-stimulated Cl- channel activity, in words” value with ΔF508-CFTR (CFT1 cells) is “very similar results”.
